These results are taken from ChEMBL document CHEMBL3272102, “Carboxyarylindoles as nonsteroidal antiinflammatory agents” (J Med Chem, 1976).

The subject of data set [1] is Rattus norvegicus. Nature of the data set: Antiinflammatory activity in Wistar rat assessed as inhibition of carrageenan-induced paw edema at 200 mg/kg, po administered 30 mins prior to 1%, sc carrageenan challenge measured after 3 hrs. Type of data set: functional. (In general: In the carrageenan paw model, swelling and tenderness develop within hours.)
In data set [2] the test system is Rattus norvegicus. Nature of the data set: Antiinflammatory activity in po dosed Wistar rat assessed as inhibition of carrageenan-induced paw edema administered 30 mins prior to 1%, sc carrageenan challenge measured after 3 hrs. Type of data set: functional.
In data set [3] the test system is Rattus norvegicus. Nature of the data set: Toxicity in po dosed Wistar rat. Type of data set: organism-based. Particulars: in vivo.
For data set [4], the system named is Rattus norvegicus. Nature of the data set: Antiinflammatory activity in po dosed Wistar rat assessed as inhibition of carrageenan-induced paw edema administered 60 mins prior to 1%, sc carrageenan challenge measured after 3 hrs. Type of data set: functional.
The subject of data set [5] is Rattus norvegicus. Put plainly: Antiinflammatory activity in po dosed Wistar rat assessed as inhibition of carrageenan-induced paw edema administered 120 mins prior to 1%, sc carrageenan challenge measured after 3 hrs. Type of data set: functional.

A value given as a limit tells only on which side of the number the result lay.

By inhibition in vivo is commonly meant the relative decrease from the control value, in per cent. A word on the ED50: it is the midpoint of the dose-response relation.

In the case of `O=C(O)c1cc(-n2c(-c3ccccc3)cc3c2CCCC3)ccc1O`, the inhibition in vivo at 200 mg/kg in the data set on Rattus norvegicus [1] was ≥ 60%. Moreover, the ED50 in the data set with Rattus norvegicus [2] came out at 87 mg/kg.

In the case of `O=C(O)c1cccc(-n2c(-c3ccccc3)cc3c2CCCC3)c1`, the inhibition in vivo at 200 mg/kg in the data set on Rattus norvegicus [1] is 20%.

With `O=C(O)c1ccc(-n2c(-c3ccccc3)cc3c2CCCC3)cc1O`, the inhibition in vivo at 200 mg/kg with Rattus norvegicus [1] is 0%.

For `CC(=O)Oc1ccc(-n2c(-c3ccccc3)cc3c2CCCC3)cc1C(=O)O`, in the data set with Rattus norvegicus [1], the inhibition in vivo at 200 mg/kg was 50%.

`COc1ccc(-n2c(-c3ccccc3)cc3c2CCCC3)cc1C(=O)O`: the inhibition in vivo at 200 mg/kg in the data set with Rattus norvegicus [1] worked out at 40%.

As to `CC(=O)Nc1ccc(-n2c(-c3ccccc3)cc3c2CCCC3)cc1C(=O)O`, the inhibition in vivo at 200 mg/kg in the data set on Rattus norvegicus [1] amounted to 30%.

For the molecule `Nc1ccc(-n2c(-c3ccccc3)cc3c2CCCC3)cc1C(=O)O`, the inhibition in vivo at 200 mg/kg in the data set with Rattus norvegicus [1] turned out to be 40%.

In the case of `O=C(O)c1cc(-n2c(-c3ccccc3)cc3c2CCCC3)ccc1Cl`, the inhibition in vivo at 200 mg/kg in the data set with Rattus norvegicus [1] is 40%.

Turning to `COC(=O)c1cc(-n2c(-c3ccccc3)cc3c2CCCC3)ccc1O`, the inhibition in vivo at 200 mg/kg in the data set on Rattus norvegicus [1] is 0%.

Consider `COC(=O)c1cc(-n2c(-c3ccccc3)cc3c2CCCC3)ccc1OC(=S)N(C)C`, for which, in the data set with Rattus norvegicus [1], the inhibition in vivo at 200 mg/kg is 0%.

With `COC(=O)c1cc(-n2c(-c3ccccc3)cc3c2CCCC3)ccc1SC(=O)N(C)C`, the inhibition in vivo at 200 mg/kg in the data set with Rattus norvegicus [1] worked out at 0%.

As for `O=C(O)c1cc(-n2c(-c3ccccc3)cc3c2CCCC3)ccc1S`, the inhibition in vivo at 200 mg/kg in the data set with Rattus norvegicus [1] is 50%.

`CCNC(=O)c1cc(-n2c(-c3ccccc3)cc3c2CCc2ccccc2-3)ccc1O`: the inhibition in vivo at 200 mg/kg in the data set on Rattus norvegicus [1] is 0%.

In the case of `O=C(O)c1cc(-n2c(-c3ccccc3)cc3c2CCCC3)c(C(F)(F)F)cc1O`, the inhibition in vivo at 200 mg/kg in the data set on Rattus norvegicus [1] came out at 0%.

Regarding `O=C(O)c1cc(-n2c(-c3ccccc3)cc3c2CCCC3)cc(Br)c1O`, the inhibition in vivo at 200 mg/kg in the data set with Rattus norvegicus [1] is 0%.

As for `O=C(O)c1cc(-n2c(-c3ccccc3)cc3c2CCCC3)cc(Cl)c1O`, the inhibition in vivo at 200 mg/kg in the data set on Rattus norvegicus [1] amounted to 0%.

Regarding `CC(=O)Nc1cc(-n2c(-c3ccccc3)cc3c2CCCC3)cc(C(=O)O)c1O`, in the data set with Rattus norvegicus [1], the inhibition in vivo at 200 mg/kg is 0%.

For `COc1ccc(-c2cc3c(n2-c2ccc(O)c(C(=O)O)c2)CCCC3)cc1`, in the data set with Rattus norvegicus [1], the inhibition in vivo at 200 mg/kg came to 50%. For the same molecule, the ED50 in the data set with Rattus norvegicus [2] was 173 mg/kg.

For `COc1cccc(-c2cc3c(n2-c2ccc(O)c(C(=O)O)c2)CCCC3)c1`, the inhibition in vivo at 200 mg/kg in the data set with Rattus norvegicus [1] was 20%.

As for `COc1ccccc1-c1cc2c(n1-c1ccc(O)c(C(=O)O)c1)CCCC2`, the inhibition in vivo at 200 mg/kg in the data set on Rattus norvegicus [1] worked out at 50%.

As to `Cc1ccc(-c2cc3c(n2-c2ccc(O)c(C(=O)O)c2)CCCC3)cc1`, the inhibition in vivo at 200 mg/kg in the data set on Rattus norvegicus [1] amounted to 30%.

On to `O=C(O)c1cc(-n2c(-c3ccc(F)cc3)cc3c2CCCC3)ccc1O`, for which the inhibition in vivo at 200 mg/kg in the data set on Rattus norvegicus [1] was ≥ 60%. In addition, the 50% effective dose (ED50) in the data set with Rattus norvegicus [2] was determined as 88 mg/kg.

Take `O=C(O)c1cc(-n2c(-c3ccc(Br)cc3)cc3c2CCCC3)ccc1O`: the inhibition in vivo at 200 mg/kg with Rattus norvegicus [1] is 40%.

In the case of `O=C(O)c1cc(-n2c(-c3ccc(Cl)cc3)cc3c2CCCC3)ccc1O`, in the data set with Rattus norvegicus [1], the inhibition in vivo at 200 mg/kg was 40%.

With `O=C(O)c1cc(-n2c(-c3ccc(Cl)c(Cl)c3)cc3c2CCCC3)ccc1O`, in the data set with Rattus norvegicus [1], the inhibition in vivo at 200 mg/kg came out at 0%.

`O=C(O)c1cc(-n2c(-c3ccc(O)cc3)cc3c2CCCC3)ccc1O`: in the data set on Rattus norvegicus [1], the inhibition in vivo at 200 mg/kg was found to be 20%.

On to `O=C(O)c1cc(-n2c(-c3cccc(C(F)(F)F)c3)cc3c2CCCC3)ccc1O`, for which the inhibition in vivo at 200 mg/kg in the data set with Rattus norvegicus [1] was found to be 20%.

`N#Cc1ccc(-c2cc3c(n2-c2ccc(O)c(C(=O)O)c2)CCCC3)cc1`: in the data set with Rattus norvegicus [1], the inhibition in vivo at 200 mg/kg is 0%.

For the molecule `O=C(O)c1cc(-n2c(-c3ccc([N+](=O)[O-])cc3)cc3c2CCCC3)ccc1O`, the inhibition in vivo at 200 mg/kg in the data set with Rattus norvegicus [1] came to 30%.

In the case of `O=C(O)c1cc(-n2c(-c3cccs3)cc3c2CCCC3)ccc1O`, the inhibition in vivo at 200 mg/kg in the data set with Rattus norvegicus [1] worked out at 30%.

On to `O=C(O)c1cc(-n2c(-c3ccc(-c4ccccc4)cc3)cc3c2CCCC3)ccc1O`, for which the inhibition in vivo at 200 mg/kg with Rattus norvegicus [1] was determined as 50%. The ED50 with Rattus norvegicus [2] came to 162 mg/kg.

As for `CC(C)(C)c1cc2c(n1-c1ccc(O)c(C(=O)O)c1)CCc1ccccc1-2`, the inhibition in vivo at 200 mg/kg in the data set on Rattus norvegicus [1] was 40%.

As to `O=C(O)c1cc(-n2c3c(c(-c4ccccc4)c2-c2ccccc2)CCCC3)ccc1O`, the inhibition in vivo at 200 mg/kg in the data set on Rattus norvegicus [1] turned out to be 30%.

`CC(=O)c1c2c(n(-c3ccc(O)c(C(=O)O)c3)c1-c1ccccc1)CCc1ccccc1-2`: the inhibition in vivo at 200 mg/kg in the data set on Rattus norvegicus [1] worked out at 0%.

Consider `O=C(O)c1cc(-n2c(-c3ccccc3)cc3c2CCC3)ccc1O`, for which the inhibition in vivo at 200 mg/kg with Rattus norvegicus [1] is 40%. Moreover, the Activity entry in the data set on Rattus norvegicus [3] is “Toxic”.

On to `O=C(O)c1cc(-n2c(-c3ccccc3)cc3c2CCCCC3)ccc1O`, for which the inhibition in vivo at 200 mg/kg with Rattus norvegicus [1] was 50%. For the same molecule, the Activity result in the data set with Rattus norvegicus [3] is on record as “Toxic”.

Turning to `O=C(O)c1cc(-n2c(-c3ccccc3)cc3c2CCCC3=O)ccc1O`, the inhibition in vivo at 200 mg/kg in the data set with Rattus norvegicus [1] stood at 0%.

`COC1CCc2c(cc(-c3ccccc3)n2-c2ccc(O)c(C(=O)O)c2)C1` (stereo not given): the inhibition in vivo at 200 mg/kg in the data set on Rattus norvegicus [1] was 40%.

As to `CC1CCc2c(cc(-c3ccccc3)n2-c2ccc(O)c(C(=O)O)c2)C1` (stereo not given), the inhibition in vivo at 200 mg/kg with Rattus norvegicus [1] is 40%.

Regarding `CC(C)(C)C1CCc2c(cc(-c3ccccc3)n2-c2ccc(O)c(C(=O)O)c2)C1` (stereo not given), the inhibition in vivo at 200 mg/kg in the data set on Rattus norvegicus [1] worked out at 0%.

Consider `O=C(O)c1cc(-n2c(-c3ccccc3)cc3c2-c2ccccc2CC3)ccc1O`, for which the inhibition in vivo at 200 mg/kg in the data set with Rattus norvegicus [1] was determined as 0%.

With `O=C(O)c1cc(-n2c(-c3ccccc3)cc3c2CCc2cc(Cl)ccc2-3)ccc1O`, the inhibition in vivo at 200 mg/kg in the data set with Rattus norvegicus [1] was 50%.

Turning to `COc1ccc2c(c1)CCc1c-2cc(-c2ccccc2)n1-c1ccc(O)c(C(=O)O)c1`, in the data set with Rattus norvegicus [1], the inhibition in vivo at 200 mg/kg amounted to 50%. The ED50 in the data set with Rattus norvegicus [4] stood at 164 mg/kg.

For the molecule `O=C(O)c1cc(-n2c(-c3ccccc3)cc3c2Cc2ccccc2-3)ccc1O`, in the data set on Rattus norvegicus [1], the inhibition in vivo at 200 mg/kg is 30%.

As to `COC(=O)c1cc(-n2c(-c3ccccc3)cc3c2CCc2ccccc2-3)ccc1O`, the inhibition in vivo at 200 mg/kg in the data set on Rattus norvegicus [1] amounted to 30%.

As for `CCOC(=O)c1cc(-n2c(-c3ccccc3)cc3c2CCc2ccccc2-3)ccc1O`, in the data set on Rattus norvegicus [1], the inhibition in vivo at 200 mg/kg came out at 0%.

As for `CC(=O)Oc1ccc(-n2c(-c3ccccc3)cc3c2CCc2ccccc2-3)cc1C(=O)O`, in the data set on Rattus norvegicus [1], the inhibition in vivo at 200 mg/kg is 50%. Moreover, the ED50 in the data set with Rattus norvegicus [5] worked out at 75 mg/kg.

Turning to `O=C(O)c1cc(-n2c(-c3ccccc3)cc3c4ccccc4ccc32)ccc1O`, the inhibition in vivo at 200 mg/kg in the data set with Rattus norvegicus [1] is ≥ 60%. Further, the results for the ED50 in the data set on Rattus norvegicus [2] and in the data set on Rattus norvegicus [4] were 105 mg/kg and 69 mg/kg, respectively.

For `O=C(O)c1cc(-n2c(-c3ccccc3)cc3ccccc32)ccc1O`, the inhibition in vivo at 200 mg/kg with Rattus norvegicus [1] was ≥ 60%.

Turning to `CC(C)(C)c1ccc2c(c1)cc(-c1ccccc1)n2-c1ccc(O)c(C(=O)O)c1`, in the data set with Rattus norvegicus [1], the inhibition in vivo at 200 mg/kg was determined as 0%.

On to `CC(=O)Oc1ccccc1C(=O)O` [ASPIRIN], for which the inhibition in vivo at 200 mg/kg with Rattus norvegicus [1] was ≥ 60%. In addition, the 50% effective dose (ED50) with Rattus norvegicus [2] stood at 140 mg/kg.

Turning to `O=C(O)c1cc(-n2c(-c3ccccc3)cc3c2CCc2ccccc2-3)ccc1O` [FENDOSAL], in the data set with Rattus norvegicus [1], the inhibition in vivo at 200 mg/kg was ≥ 60%. Besides, the values for the ED50 with Rattus norvegicus [2] and in the data set on Rattus norvegicus [5] were 125 mg/kg and 66 mg/kg, respectively.
